Results taken from US5190741A, “Agents for diagnosing and treating melanomas, aromatic halogenated derivatives usable as such agents and their preparation” (Institut National de la Sante et de la Recherche Medicale …, priority 1989, dated 1993).

Key:
grafted tumors = conditions: animals bearing grafted tumors; cited from earlier work
B16 murine melanoma = test: Tissue distribution in C57 BL6 mice bearing B16; assay type: in vivo, mouse; conditions: for elimination kinetics: compared with derivative A; for marker of the B16 murine melanoma: mouse, in vivo
Protocol: The study of the tissue distribution of the ^125 I labelled compounds was performed in mice bearing grafted melanomas (cf. autoradiograms above). […] The animals are sacrificed at different time intervals of 1 to 24 hours after the injection. The blood is collected and the principal organs are excised. Aliquots are weighed and the radioactivity of the samples is measured in a […] 1191 counter (analytic tracer). The counting yield for iodine 125 is 60%. The results are expressed: as a percentage of the injected dose bound per g of tissue (% ID/g); in the form of the ratios [formula] This ratio reflects more precisely the selectivity of a molecule for an organ (tables 2, 4, 6, 8, 10 and 12).

melanoma in man = conditions: in vivo; cited from earlier work
melanoma = conditions: in vivo; cited from earlier work

SMILES | elimination kinetics (B16 murine melanoma) | marker of the B16 murine melanoma (B16 murine melanoma) | further results
O=c1[nH]c(=S)[nH]cc1I [iodothiouracil labelled with ^125 I, iodothiouracil] | – | – | localization and treatment of malignant melanoma (grafted tumors): promising agent for the localization and the treatment of malignant melanoma
CN(C)CCNC(=O)c1ccc(I)cc1 [Derivative E] | more rapid elimination | markers of the B16 murine melanoma | possibility for use in scanning (B16 murine melanoma; between 3 h and 6 h after administration): possibilities for use in scanning between 3 h and 6 h
CN(C)CCCNC(=O)c1ccc(I)cc1 [Derivative J] | more rapid elimination | markers of the B16 murine melanoma | –
CC(C)NC(C)Cc1ccc([123I])cc1 (stereo not drawn) [^123 I-IMP] | – | – | detection of melanoma in man (melanoma in man): used for the detection of melanoma in man
O=C([O-])CC(O)(CC(=O)[O-])C(=O)[O-].[67Ga+3] [citrate of gallium 67] | – | – | elimination from the digestive tract (melanoma): very slow elimination from the digestive tract; localization in the liver and the kidney (melanoma): late and extensive localization in the liver and the kidney
CCN(CC)CCCNC(=O)c1ccc(I)cc1 [Derivative L] | more rapid elimination | markers of the B16 murine melanoma | –
CC(C)N(CCNC(=O)c1ccc(I)cc1)C(C)C [Derivative G] | – | markers of the B16 murine melanoma | –
